Where two headings read alike, the source gives them in different places.
Molecular target: T1, full-length beta-Catenin (Uniprot ID P35222) (Homo sapiens, UniProt P35222)
T1 construct: 10 nM full-length beta-Catenin (Uniprot ID P35222)
T1 sequence (P35222 1-781): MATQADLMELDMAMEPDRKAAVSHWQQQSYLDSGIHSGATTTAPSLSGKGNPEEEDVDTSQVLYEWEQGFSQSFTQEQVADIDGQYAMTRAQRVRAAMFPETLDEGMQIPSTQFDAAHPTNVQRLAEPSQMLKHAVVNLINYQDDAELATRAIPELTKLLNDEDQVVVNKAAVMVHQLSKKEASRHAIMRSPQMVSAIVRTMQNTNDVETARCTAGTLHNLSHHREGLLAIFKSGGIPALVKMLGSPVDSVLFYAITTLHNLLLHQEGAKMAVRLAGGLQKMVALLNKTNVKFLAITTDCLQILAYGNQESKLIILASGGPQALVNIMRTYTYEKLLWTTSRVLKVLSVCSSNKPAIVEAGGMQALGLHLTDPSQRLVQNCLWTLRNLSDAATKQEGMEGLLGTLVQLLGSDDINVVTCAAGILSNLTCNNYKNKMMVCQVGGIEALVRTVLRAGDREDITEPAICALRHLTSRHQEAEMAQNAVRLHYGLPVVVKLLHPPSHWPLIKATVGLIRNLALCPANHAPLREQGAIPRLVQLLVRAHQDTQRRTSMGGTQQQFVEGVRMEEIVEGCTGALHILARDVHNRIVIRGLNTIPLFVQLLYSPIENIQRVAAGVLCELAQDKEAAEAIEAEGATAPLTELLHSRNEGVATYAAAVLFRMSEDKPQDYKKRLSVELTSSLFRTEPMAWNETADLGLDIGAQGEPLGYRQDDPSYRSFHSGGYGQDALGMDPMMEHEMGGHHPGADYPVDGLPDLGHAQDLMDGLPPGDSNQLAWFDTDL
Assay: Fluorescence polarization IC50 (beta-catenin / 5FAM-TCF4 10-53 competition)
Assay type: binding

[1] = fluorescence polarization, read-out: beta-Catenin FP IC50
[2] = beta-Catenin FP IC50 (nM), fluorescence polarization

Row | Structure (SMILES) | IC50 [1] [nM] | further results
1 | CC(C)C[C@@H]1NC(=O)[C@H](Cc2ccccc2)NC(=O)[C@H](C)NC(=O)[C@H](C)NC(=O)[C@H](CN(CC(=O)O)CC(F)(F)F)NC(=O)[C@H](CC(=O)O)NC(=O)C2(CCCCCCCCOC(=O)N3CC[C@@](C(=O)N[C@@H](Cc4ccsc4)C(=O)N[C@@H](Cc4csc5ccccc45)C(=O)N[C@@H](CCC(N)=O)C(N)=O)(C3)NC1=O)CCCCCCOc1cccc(c1)C(=O)N[C@@H](CC(=O)O)C(=O)N[C@@H](CC(C)(C)C)C(=O)N2 (stereo partly drawn) [I-2376, BzAm3OAllyl-Asp-Npg-B5-Asp-TfeGA-Ala-Ala-Phe-Leu-PyrS2-3Thi-BztA-Gln-NH2] | 352 | 
2 | COC(=O)CC[C@@H]1NC(=O)[C@H](CC(=O)O)NC(=O)C2(CCCC=CCCCOC(=O)N3CC[C@@](C(=O)N[C@@H](Cc4ccsc4)C(=O)N[C@@H](Cc4csc5ccccc45)C(=O)N[C@@H](CCC(N)=O)C(N)=O)(C3)NC(=O)[C@H](CC(C)C)NC(=O)[C@H](Cc3ccccc3)NC(=O)[C@H](C)NC(=O)[C@H](C)NC1=O)CCCC=CC[C@]1(CCCN1C(C)=O)C(=O)N[C@@H](CC(=O)O)C(=O)N[C@@H](CC(C)(C)C)C(=O)N2 (stereo partly drawn) [I-2366, Ac-PL3-Asp-Npg-B5-Asp-[Me]GluE-Ala-Ala-Phe-Leu-PyrS2-3Thi-BztA-Gln-NH2] | 1740 | 
3 | CC(=O)N1CCC[C@]12CC=CCCCC1(CCCC=CCCCOC(=O)N3CC[C@@](C(=O)N[C@@H](Cc4ccsc4)C(=O)N[C@@H](Cc4csc5ccccc45)C(=O)N[C@@H](Cc4c[nH]c5ccccc45)C(N)=O)(C3)NC(=O)[C@H](CC(N)=O)NC(=O)[C@H](Cc3ccccc3)NC(=O)[C@H](C)NC(=O)[C@H](C)NC(=O)[C@H]([C@@H](C)O)NC(=O)[C@H](CC(N)=O)NC1=O)NC(=O)[C@H](CC(C)(C)C)NC(=O)[C@H](CC(=O)O)NC2=O (stereo partly drawn) [I-2139, Ac-PL3-Asp-Npg-B5-Asn-Thr-Ala-Ala-Phe-Asn-PyrS2-3Thi-BztA-Trp-NH2] | 970 | 
4 | CC(C)C[C@@H]1NC(=O)[C@H](Cc2ccccc2)NC(=O)[C@H](C)NC(=O)[C@H](C)NC(=O)[C@H](Cc2cccc(C(=O)O)c2)NC(=O)[C@H](CC(=O)O)NC(=O)C2(CCCC=CCCCOC(=O)N3CC[C@@](C(=O)N[C@@H](Cc4ccccc4Cl)C(=O)N[C@@H](Cc4csc5ccccc45)C(=O)N[C@@H](C)C(N)=O)(C3)NC1=O)CCCC=CC[C@]1(CCCN1C(=O)CCl)C(=O)N[C@@H](CC(=O)O)C(=O)N[C@@H](CC(C)(C)C)C(=O)N2 (stereo partly drawn) [I-2253, ClAc-PL3-Asp-Npg-B5-Asp-3COOHF-Ala-Ala-Phe-Leu-PyrS2-2C1F-BztA-Ala-NH2] |  | IC50 [2]: 189 nM
5 | CCC(C)N(CC(=O)O)C[C@@H]1NC(=O)[C@H](CC(=O)O)NC(=O)C2(CCCC=CCCCOC(=O)N3CC[C@@](C(=O)N[C@@H](Cc4ccccc4Cl)C(=O)N[C@@H](Cc4csc5ccccc45)C(=O)N[C@@H](CCC(N)=O)C(N)=O)(C3)NC(=O)[C@H](CC(N)=O)NC(=O)[C@H](Cc3ccccc3)NC(=O)[C@H](C)NC(=O)[C@H](C)NC1=O)CCCC=CC[C@]1(CCCN1C(C)=O)C(=O)N[C@@H](CC(=O)O)C(=O)N[C@@H](CC(C)(C)C)C(=O)N2 (stereo partly drawn) [I-1623, Ac-PL3-Asp-Npg-B5-Asp-[sBu]GA-Ala-Ala-Phe-Asn-PyrS2-2C1F-BztA-Gln-NH2] | 30 | 
6 | CC(=O)N1CCC[C@]12CC=CCCCC1(CCCC=CCCCOC(=O)N3CC[C@@](C(=O)N[C@@H](Cc4ccccc4Cl)C(=O)N[C@@H](Cc4csc5ccccc45)C(=O)N[C@@H](CC(C)C)C(N)=O)(C3)NC(=O)[C@H](CC(C)C)NC(=O)[C@H](Cc3ccccc3)NC(=O)[C@H](C)NC(=O)[C@H](C)NC(=O)[C@H](CC(=O)O)NC(=O)[C@H](CC(=O)O)NC1=O)NC(=O)[C@H](CO)NC(=O)[C@H](CC(=O)O)NC2=O (stereo partly drawn) [I-1423, Ac-PL3-Asp-Ser-B5-Asp-Asp-Ala-Ala-Phe-Leu-PyrS2-2C1F-BztA-Leu-NH2] |  | IC50 (beta-Catenin FP IC50, fluorescence polarization): 389 nM
7 | CC(=O)N1CCC[C@]12CC=CCCCC1(CCCC=CCCCOC(=O)N3CC[C@@](C(=O)N[C@@H](Cc4ccccc4)C(=O)N[C@@H](Cc4csc5ccccc45)C(=O)N[C@@H](CCC(N)=O)C(N)=O)(C3)NC(=O)[C@H](CC(C)C)NC(=O)[C@H](Cc3ccccc3)NC(=O)[C@H](C)NC(=O)[C@H](CCCCNC(C)C)NC(=O)[C@H](Cc3c[nH]cn3)NC(=O)[C@H](CC(=O)O)NC1=O)NC(=O)[C@H](CC1CCCCC1)NC(=O)[C@H](CC(N)=O)NC2=O (stereo partly drawn) [I-2349, Ac-PL3-Asn-Cha-B5-Asp-His-iPrLys-Ala-Phe-Leu-PyrS2-Phe-BztA-Gln-NH2] | 1160 | 
8 | CC(=O)N1CC2CC1C(=O)N[C@@H](CC(=O)O)C(=O)N[C@@H](CC(C)(C)C)C(=O)NC1(CCCCCCCCOC(=O)N3CC[C@@](C(=O)N[C@@H](Cc4ccsc4)C(=O)N[C@@H](Cc4csc5ccccc45)C(=O)N[C@@H](CCC(N)=O)C(N)=O)(C3)NC(=O)[C@H](CC(C)C)NC(=O)[C@H](Cc3ccccc3)NC(=O)[C@H](C)NC(=O)[C@H](C)NC(=O)[C@H](CN(CC(=O)O)CC(F)(F)F)NC(=O)[C@H](CC(=O)O)NC1=O)CCCCCCOc1cccc(c1)CC(=O)O2 (stereo partly drawn) [I-2406, Ac-HypPAc3OAllyl-Asp-Npg-B5-Asp-TfeGA-Ala-Ala-Phe-Leu-PyrS2-3Thi-BztA-Gln-NH2] |  | IC50 [2]: 242 nM
9 | CC(=O)N1CCC[C@]12CC=CCCCC1(CCCC=CCCCOC(=O)N3CC[C@@](C(=O)N[C@@H](Cc4ccsc4)C(=O)N[C@@H](Cc4csc5ccccc45)C(=O)N[C@@H](CC(C)C)C(N)=O)(C3)NC(=O)[C@H](CC(N)=O)NC(=O)[C@H](Cc3ccccc3)NC(=O)[C@H](C)NC(=O)[C@H](C)NC(=O)[C@H]([C@@H](C)O)NC(=O)[C@H](CC(N)=O)NC1=O)NC(=O)[C@H](CC(C)(C)C)NC(=O)[C@H](CC(=O)O)NC2=O (stereo partly drawn) [I-1881, Ac-PL3-Asp-Npg-B5-Asn-Thr-Ala-Ala-Phe-Asn-PyrS2-3Thi-BztA-Leu-NH2] | 743 | 
10 | CCSSCCOC(=O)C[C@@H]1NC(=O)C2(CCCC=CCCCOC(=O)N3CC[C@@](C(=O)N[C@@H](Cc4ccsc4)C(=O)N[C@@H](Cc4csc5ccccc45)C(=O)N[C@@H](CCC(N)=O)C(N)=O)(C3)NC(=O)[C@H](CC(C)C)NC(=O)[C@H](Cc3ccccc3)NC(=O)[C@H](C)NC(=O)[C@H](C)NC(=O)[C@H](CC(=O)O)NC1=O)CCCC=CC[C@]1(CCCN1C(C)=O)C(=O)N[C@@H](CC(=O)O)C(=O)N[C@@H](CC(C)(C)C)C(=O)N2 (stereo partly drawn) [I-1964, Ac-PL3-Asp-Npg-B5-[EtSSEt]AspE-Asp-Ala-Ala-Phe-Leu-PyrS2-3Thi-BztA-Gln-NH2] | 738 | 
11 | CC(=O)N1CCC[C@]12CC=CCCCC1(CCCC=CCCCCCC[C@@](C)(C(=O)N[C@@H](Cc3ccccc3)C(=O)N[C@@H](Cc3csc4ccccc34)C(=O)N[C@@H](CCC(N)=O)C(N)=O)NC(=O)[C@H](CC(C)C)NC(=O)[C@H](Cc3ccccc3)NC(=O)[C@H](C)NC(=O)[C@H](C)NC(=O)[C@H](CCC(=O)O)NC(=O)[C@H](CC(=O)O)NC1=O)NC(=O)[C@H](CCC(C)C)NC(=O)[C@H](CC(=O)O)NC2=O (stereo partly drawn) [I-1536, Ac-PL3-Asp-Hleu-B5-Asp-Glu-Ala-Ala-Phe-Leu-S8-Phe-BztA-Gln-NH2] | 42 | 
12 | C[C@@H]1NC(=O)[C@H](C)NC(=O)[C@H](CC(=O)O)NC(=O)[C@H](CC(=O)O)NC(=O)C2(CCCC=CCCCOC(=O)N3CC[C@@](C(=O)N[C@@H](Cc4ccsc4)C(=O)N[C@@H](Cc4csc5ccccc45)C(=O)N[C@@H](CCC(N)=O)C(N)=O)(C3)NC(=O)[C@H](CC(N)=O)NC(=O)[C@H](Cc3ccccc3)NC1=O)CCCC=CCS(=O)(=O)N1CCCC1C(=O)N[C@@H](CC(=O)O)C(=O)N[C@@H](CC(C)(C)C)C(=O)N2 (single isomer, unassigned) [I-1576, ProSAm3-Asp-Npg-B5-Asp-Asp-Ala-Ala-Phe-Asn-PyrS2-3Thi-BztA-Gln-NH2] | 224 | 
13 | CC(=O)N1CCC[C@]12CCCCCCC1(CCCCCCCCOC(=O)N3CC[C@@](C(=O)N[C@@H](Cc4ccsc4)C(=O)N[C@@H](Cc4csc5ccccc45)C(=O)N[C@@H](CCC(N)=O)C(N)=O)(C3)NC(=O)[C@H](CC(C)C)NC(=O)[C@H](Cc3ccccc3)NC(=O)[C@H](C)NC(=O)[C@H](CCO)NC(=O)[C@H](CCC(N)=O)NC(=O)[C@H](CC(=O)O)NC1=O)NC(=O)[C@H](CC1CCCCC1)NC(=O)[C@H](CC(N)=O)NC2=O (stereo partly drawn) [I-2451, Ac-PL3-Asn-Cha-B5-Asp-Gln-Hse-Ala-Phe-Leu-PyrS2-3Thi-BztA-Gln-NH2] | 4860 | 
14 | CC(=O)N1CCC[C@]12CC=CCCCC1(CCCC=CCCCOC(=O)N3CC[C@@](C(=O)N[C@@H](Cc4ccccc4)C(=O)N[C@@H](Cc4csc5ccccc45)C(=O)N[C@@H](CCCCNC(C)C)C(N)=O)(C3)NC(=O)[C@H](CCCCNC(C)C)NC(=O)[C@H](Cc3ccccc3)NC(=O)[C@H](C)NC(=O)[C@H](CCCCNC(C)C)NC(=O)[C@H](CCC(N)=O)NC(=O)[C@H](CC(=O)O)NC1=O)NC(=O)[C@H](CC(C)(C)C)NC(=O)[C@H](CC(N)=O)NC2=O (stereo partly drawn) [I-1654, Ac-PL3-Asn-Npg-B5-Asp-Gln-iPrLys-Ala-Phe-iPrLys-PyrS2-Phe-BztA-iPrLys-NH2] | 2130 | 
